Publication PMC4335062, “Data-Driven Prediction and Design of bZIP Coiled-Coil Interactions” (PLoS Computational Biology, 2015)
Read-outs that look alike come from different tables or passages of the source. Where no end group is shown, it is not given here.

Assays:
Assay in all cases: Direct-binding FRET assay
NFE2L3 = biological target: T1, NFE2L3 (Homo sapiens, UniProt Q9Y4A8); settings: mean or single, read-out: Kd
T1 construct: made in house
T1 sequence (Q9Y4A8 578-641 limits assumed): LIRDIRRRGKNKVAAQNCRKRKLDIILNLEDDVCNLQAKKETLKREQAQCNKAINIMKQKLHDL
Protocol: (§1) The direct binding assay was performed manually in 384-well plates and is similar to a previously described assay. Wells were filled with 20 μL of 1 mM TCEP-HCl. A 4 μM stock of acceptor protein was made fresh in 1 mM TCEP-HCl, and 20 μL was titrated in 2-fold dilutions over the wells. […] The direct-binding FRET data were fit as previously described. Briefly, the Kd of the designed peptide homodimer was experimentally determined and used with previously determined target homodimer Kd values to determine the heterodimer Kd. The homodimer Kd values used for the human bZIPs were from; experiments done by […] et al. used the same protein constructs for the human bZIP proteins, the same buffer conditions, and the same assay. The fitting used a system of ordinary differential equations to describe the concentrations of homo and heterodimers formed by the donor (D) and acceptor (A) as a function of the heterodimer Kd. MATLAB was used to simulate the binding experiment for different Kd values, and the value that gave the best agreement between simulation and experiment was assigned. A minimum 15% change in the donor fluorescence upon titrating the acceptor peptide from 0 to 1000 nM was required for a fit to be attempted. If this minimum was not met, the interaction was classified as “NS” for no signal change. […] For such curves, we removed the first five points and re-fit the data.

NFE2 = biological target: T2, NFE2 (Homo sapiens, UniProt Q16621); settings: mean or single, read-out: Kd
T2 construct: made in house
T2 sequence (Q16621 266-329 limits assumed): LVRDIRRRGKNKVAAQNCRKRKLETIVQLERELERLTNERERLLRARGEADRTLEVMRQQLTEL
Protocol: as §1

MAFF = biological target: T3, MAFF (Homo sapiens, UniProt Q9ULX9); settings: read-out: Kd
T3 construct: made in house
T3 sequence (Q9ULX9 51-114 limits assumed): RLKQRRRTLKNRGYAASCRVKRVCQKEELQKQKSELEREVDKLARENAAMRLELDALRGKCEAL
Protocol: as §1

BATF = biological target: T4, BATF (Homo sapiens, UniProt Q16520); settings: mean or single, read-out: Kd
T4 construct: made in house
T4 sequence (Q16520 26-89 limits assumed): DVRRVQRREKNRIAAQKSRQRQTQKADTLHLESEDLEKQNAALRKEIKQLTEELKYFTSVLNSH
In short: (§2)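 Acceptor protein, prepared fresh as a 4 μM stock in 1 mM TCEP-HCl, was titrated in 2-fold dilutions in 1 mM TCEP-HCl. Heterodimer Kd was obtained by ODE-based simulation, using the measured designed-peptide homodimer Kd and earlier target homodimer Kd values, and taking the best-fitting Kd.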

BATF2 = biological target: T5, BATF2 (Homo sapiens, UniProt Q8N1L9); settings: mean or single, read-out: Kd
T5 construct: made in house
T5 sequence (Q8N1L9 17-80 limits assumed): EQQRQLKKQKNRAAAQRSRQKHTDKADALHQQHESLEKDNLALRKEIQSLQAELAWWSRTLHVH
In short: as §2

ATF2 = biological target: T6, ATF2 (Homo sapiens, UniProt P15336); settings: mean or single, read-out: Kd
T6 construct: made in house
T6 sequence (P15336 352-415 limits assumed): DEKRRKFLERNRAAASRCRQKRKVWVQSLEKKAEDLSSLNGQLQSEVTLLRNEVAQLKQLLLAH
In short: as §2

CREB3 = biological target: T7, CREB3 (Homo sapiens, UniProt O43889); settings: mean or single, read-out: Kd
T7 construct: made in house
T7 sequence (O43889 150-213 limits assumed): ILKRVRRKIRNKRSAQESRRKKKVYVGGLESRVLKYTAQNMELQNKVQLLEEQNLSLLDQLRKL
In short: as §2

NFE2L2 = biological target: T8, NFE2L2 (Homo sapiens, UniProt Q16236); settings: mean or single, read-out: Kd
T8 construct: made in house
T8 sequence (Q16236 497-560 limits assumed): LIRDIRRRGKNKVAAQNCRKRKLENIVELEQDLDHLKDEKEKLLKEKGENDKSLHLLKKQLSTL
In short: as §2

[1] = 4°C, C-terminal rhodamine design
[2] = 4°C, N-terminal rhodamine design
[3] = 23°C, C-terminal rhodamine design
[4] = 23°C, N-terminal rhodamine design
[5] = 37°C, C-terminal rhodamine design
[6] = 37°C, N-terminal rhodamine design

**Q.** With “KRIAYLRQRIAELRNENHVLESRIQRMEKEKDALQQDRDHLEYEL [ATF5-d1]” as the sequence, how does the Kd (NFE2L3; [1]) read?
**A.** > 5000 nM

**Q.** And the Kd (NFE2L3; [2])?
**A.** > 1000 nM

**Q.** What about the Kd (NFE2L3; [3]) of the same sequence?
**A.** > 1000 nM

**Q.** And the Kd (NFE2L3; [4])?
**A.** > 1000 nM

**Q.** What about the Kd (NFE2L3; [5]) of the same sequence?
**A.** 911 nM

**Q.** And the Kd (NFE2L3; [6])?
**A.** > 1000 nM

**Q.** What about the Kd (NFE2; [1]) of the same sequence?
**A.** 162 nM

**Q.** What about the Kd (NFE2; [2]) of the same sequence?
**A.** > 5000 nM

**Q.** What about the Kd (NFE2; [3]) of the same sequence?
**A.** > 5000 nM

**Q.** And the Kd (NFE2; [4])?
**A.** > 1000 nM

**Q.** What about the Kd (NFE2; [5]) of the same sequence?
**A.** > 5000 nM

**Q.** What about the Kd (NFE2; [6]) of the same sequence?
**A.** > 1000 nM

**Q.** What about the Kd (MAFF; 4°C, C-terminal rhodamine design, mean or single) of the same sequence?
**A.** 0.266 µM

**Q.** What about the Kd (MAFF; 4°C, N-terminal rhodamine design, repeat 1) of the same sequence?
**A.** > 5 µM

**Q.** What about the Kd (MAFF; 23°C, C-terminal rhodamine design, mean or single) of the same sequence?
**A.** > 5 µM

**Q.** What about the Kd (MAFF; 23°C, N-terminal rhodamine design, repeat 1) of the same sequence?
**A.** > 5 µM

**Q.** What about the Kd (MAFF; 37°C, C-terminal rhodamine design, mean or single) of the same sequence?
**A.** > 5 µM

**Q.** What about the Kd (MAFF; 37°C, N-terminal rhodamine design, repeat 1) of the same sequence?
**A.** > 5 µM

**Q.** And the Kd (BATF; [1])?
**A.** > 5000 nM

**Q.** And the Kd (BATF; [2])?
**A.** 136 nM

**Q.** What about the Kd (BATF; [3]) of the same sequence?
**A.** > 5000 nM

**Q.** And the Kd (BATF; [4])?
**A.** 382 nM

**Q.** What about the Kd (BATF; [5]) of the same sequence?
**A.** > 5000 nM

**Q.** What about the Kd (BATF; [6]) of the same sequence?
**A.** > 5000 nM

**Q.** And the Kd (BATF2; [1])?
**A.** 591 nM

**Q.** And the Kd (BATF2; [2])?
**A.** 76 nM

**Q.** What about the Kd (BATF2; [3]) of the same sequence?
**A.** > 5000 nM

**Q.** And the Kd (BATF2; [4])?
**A.** 509 nM

**Q.** And the Kd (BATF2; [5])?
**A.** > 1000 nM

**Q.** What about the Kd (BATF2; [6]) of the same sequence?
**A.** > 5000 nM

**Q.** What about the Kd (ATF2; [1]) of the same sequence?
**A.** > 5 µM

**Q.** What about the Kd (ATF2; [3]) of the same sequence?
**A.** > 5 µM

**Q.** What about the Kd (ATF2; [4]) of the same sequence?
**A.** > 1 µM

**Q.** What about the Kd (ATF2; [5]) of the same sequence?
**A.** > 5 µM

**Q.** What about the Kd (ATF2; [6]) of the same sequence?
**A.** > 1 µM

**Q.** And the Kd (CREB3; [1])?
**A.** 147 nM

**Q.** And the Kd (CREB3; [2])?
**A.** > 1000 nM

**Q.** What about the Kd (CREB3; [3]) of the same sequence?
**A.** > 5000 nM

**Q.** And the Kd (CREB3; [4])?
**A.** > 1000 nM

**Q.** What about the Kd (CREB3; [5]) of the same sequence?
**A.** 200 to 1000 nM

**Q.** And the Kd (CREB3; [6])?
**A.** > 1000 nM

**Q.** What about the Kd (NFE2L2; [1]) of the same sequence?
**A.** > 5000 nM

**Q.** And the Kd (NFE2L2; [2])?
**A.** > 1000 nM

**Q.** What about the Kd (NFE2L2; [3]) of the same sequence?
**A.** > 1000 nM

**Q.** And the Kd (NFE2L2; [4])?
**A.** > 1000 nM

**Q.** And the Kd (NFE2L2; [5])?
**A.** > 5000 nM

**Q.** And the Kd (NFE2L2; [6])?
**A.** > 1000 nM
